Test results published in US20260356819A1, “OXOISOINDOLINYL-SUBSTITUTED […] DERIVATIVE AND USE THEREOF” (GLUETACS THERAPEUTICS (SHANGHAI) CO., LTD., priority 2023, published 2026).

Key:
IKZF3 = target: T1, IKZF3 (Homo sapiens, UniProt Q96SW2+Q9UKT9); experiment: Western blot degradation of IKZF3 in hPBMCs (24 h); assay type: cell-based; conditions: compounds at 50 nM and 500 nM
T1 construct: The supernatant was aspirated as the extracted total cell protein; endogenous in cells; host or cells: human peripheral blood mononuclear cells (hPBMCs)
T1 sequence (Q9UKT9 whole entry): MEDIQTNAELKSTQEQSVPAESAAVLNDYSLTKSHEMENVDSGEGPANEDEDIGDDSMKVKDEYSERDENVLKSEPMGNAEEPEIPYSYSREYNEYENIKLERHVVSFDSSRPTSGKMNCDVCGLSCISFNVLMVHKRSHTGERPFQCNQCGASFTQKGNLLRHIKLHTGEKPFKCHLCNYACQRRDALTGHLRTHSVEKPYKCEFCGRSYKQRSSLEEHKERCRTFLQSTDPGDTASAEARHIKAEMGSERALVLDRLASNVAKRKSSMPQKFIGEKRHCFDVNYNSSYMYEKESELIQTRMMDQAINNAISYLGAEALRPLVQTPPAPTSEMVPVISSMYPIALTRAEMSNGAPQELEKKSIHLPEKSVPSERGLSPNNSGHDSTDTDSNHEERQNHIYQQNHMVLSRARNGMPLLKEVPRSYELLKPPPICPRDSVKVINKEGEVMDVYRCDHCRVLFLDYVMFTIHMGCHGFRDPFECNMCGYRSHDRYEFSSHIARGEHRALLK
T1 sequence (Q96SW2 whole entry): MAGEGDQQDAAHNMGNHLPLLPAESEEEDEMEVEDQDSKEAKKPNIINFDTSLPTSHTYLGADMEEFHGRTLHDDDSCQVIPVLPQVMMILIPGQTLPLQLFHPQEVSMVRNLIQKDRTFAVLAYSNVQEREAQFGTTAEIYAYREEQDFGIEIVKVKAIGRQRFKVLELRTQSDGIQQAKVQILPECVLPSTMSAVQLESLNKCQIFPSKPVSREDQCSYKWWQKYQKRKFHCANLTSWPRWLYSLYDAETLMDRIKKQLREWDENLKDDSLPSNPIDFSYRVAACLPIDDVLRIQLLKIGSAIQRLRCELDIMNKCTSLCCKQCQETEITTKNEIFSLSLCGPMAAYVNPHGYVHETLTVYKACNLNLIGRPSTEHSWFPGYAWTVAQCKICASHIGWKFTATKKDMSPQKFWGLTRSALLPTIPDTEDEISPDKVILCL
T1 sequence (Q16531 whole entry partner): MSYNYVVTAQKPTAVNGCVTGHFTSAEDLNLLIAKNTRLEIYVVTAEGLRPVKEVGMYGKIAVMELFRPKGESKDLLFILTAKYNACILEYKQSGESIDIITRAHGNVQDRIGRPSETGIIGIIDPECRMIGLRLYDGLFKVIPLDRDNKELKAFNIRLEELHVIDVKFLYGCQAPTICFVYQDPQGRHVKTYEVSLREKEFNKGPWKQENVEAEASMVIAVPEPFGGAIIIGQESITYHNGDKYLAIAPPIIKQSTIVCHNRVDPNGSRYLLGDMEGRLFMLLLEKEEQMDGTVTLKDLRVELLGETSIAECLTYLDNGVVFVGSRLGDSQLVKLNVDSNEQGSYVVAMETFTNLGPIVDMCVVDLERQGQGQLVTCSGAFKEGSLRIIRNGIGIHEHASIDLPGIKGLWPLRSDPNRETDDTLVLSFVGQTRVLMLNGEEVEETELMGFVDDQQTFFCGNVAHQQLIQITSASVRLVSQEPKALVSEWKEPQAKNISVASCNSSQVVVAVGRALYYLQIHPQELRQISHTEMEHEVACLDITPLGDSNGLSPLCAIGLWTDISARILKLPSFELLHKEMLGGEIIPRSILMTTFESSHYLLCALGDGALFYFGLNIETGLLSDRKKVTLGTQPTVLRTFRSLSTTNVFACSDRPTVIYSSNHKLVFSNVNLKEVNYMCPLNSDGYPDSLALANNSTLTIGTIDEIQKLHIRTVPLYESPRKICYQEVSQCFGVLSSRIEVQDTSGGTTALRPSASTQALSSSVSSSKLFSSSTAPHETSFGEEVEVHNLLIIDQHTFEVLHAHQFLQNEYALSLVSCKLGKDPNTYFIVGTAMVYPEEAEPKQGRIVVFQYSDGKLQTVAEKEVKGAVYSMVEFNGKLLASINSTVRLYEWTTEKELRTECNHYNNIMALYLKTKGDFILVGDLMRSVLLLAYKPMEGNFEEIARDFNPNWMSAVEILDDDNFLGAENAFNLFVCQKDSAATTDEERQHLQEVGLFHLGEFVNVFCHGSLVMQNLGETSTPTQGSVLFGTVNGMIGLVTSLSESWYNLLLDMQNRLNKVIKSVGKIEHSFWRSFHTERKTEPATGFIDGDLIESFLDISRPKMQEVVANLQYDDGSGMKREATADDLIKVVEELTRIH
How it was run: (§1)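 hPBMCs (1×10^6 cells/mL) exposed to compound at 50 nM and 500 nM for 24 h, DMSO as reference. Lysates run on SDS-PAGE and immunoblotted. Band grayscale normalized to internal control gives % protein remaining; DC50 from fitted concentration-response of band intensity versus DMSO.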

MGC803 cells = experiment: Inhibition of proliferation of gastric cancer cells MGC803 (cell viability assay, 96 h); assay type: cell-based, human; conditions: read-out: inhibitory activity (IC50) against tumor cells proliferation, MGC803
Method: (§2) The tumor cells used herein were cultured in a cell culture medium listed in table 2 at 37 °C in an incubator with 5% CO2. Prior to experimentation, all cell lines used were correctly identified by STR profiling, and tested negative for Mycoplasma contamination using a Mycoplasma detection kit through routine screenings.
(§3) The IC50 values of the compounds of the present disclosure (including the compounds in Table 1, and Examples 1-498) were determined using the CellTiter-Meiluncell Luminescent Cell Viability Assay Kit from Dalian Meilun Biotech Co., Ltd. The detailed procedure is as follows: Tumor cells were seeded in 96-well cell culture plates at the densities specified in Table 3. On the following day, the test compounds of the present disclosure were subjected to serial dilution. […] Subsequently, 0.5 μL of the test compound dilution was transferred into the 96-well plate containing the cells, with each well containing 100 μL of cell culture medium. […] Into the 96-well plate, the diluted test compounds and corresponding detection reagents were added, resulting in final test compound concentrations of 500 nM and 10 nM, respectively. The experimental procedure is described below using the diluted 2 μM test compound as an example.
(§4) 0.5 μL of the aforementioned diluted compound of the present disclosure (including the compounds in Table 1, and Examples 1-498) was added to the seeded cells in 100 μL of medium, yielding a final test compound concentration of 10 nM. After the cells were treated with the compounds of the present disclosure for a specified period, the cell viability assay reagent was added to the culture medium according to the kit's instructions to determine cell viability. […] All controls were treated using the same procedure as the compounds of the present disclosure. The growth inhibition curves for the compounds of the present disclosure were plotted using Prism GraphPad software, and the IC50 values were calculated therefrom.

IKZF1 = target: T2, IKZF1 (Homo sapiens, UniProt Q13422+Q96SW2); experiment: Western blot degradation of IKZF1 in hPBMCs (24 h); assay type: cell-based; conditions: compounds at 50 nM and 500 nM
T2 construct: The supernatant was aspirated as the extracted total cell protein; endogenous in cells; host or cells: human peripheral blood mononuclear cells (hPBMCs)
T2 sequence (Q13422 whole entry): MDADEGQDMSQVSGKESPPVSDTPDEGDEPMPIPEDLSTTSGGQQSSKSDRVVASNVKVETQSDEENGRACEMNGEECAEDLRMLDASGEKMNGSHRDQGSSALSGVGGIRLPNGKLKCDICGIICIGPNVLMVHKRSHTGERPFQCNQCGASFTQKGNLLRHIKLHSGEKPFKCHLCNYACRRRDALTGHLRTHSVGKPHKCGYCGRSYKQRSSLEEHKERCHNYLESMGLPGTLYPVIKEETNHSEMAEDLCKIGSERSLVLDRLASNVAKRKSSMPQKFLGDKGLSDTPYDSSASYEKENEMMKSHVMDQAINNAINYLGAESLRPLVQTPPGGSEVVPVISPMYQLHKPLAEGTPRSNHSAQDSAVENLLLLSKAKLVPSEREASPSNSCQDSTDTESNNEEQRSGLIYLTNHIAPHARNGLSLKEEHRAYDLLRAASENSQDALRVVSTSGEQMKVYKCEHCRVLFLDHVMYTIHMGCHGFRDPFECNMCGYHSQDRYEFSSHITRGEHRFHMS
T2 sequence (Q96SW2 whole entry): as the sequence (Q96SW2 whole entry) above
T2 sequence (Q16531 whole entry partner): as the sequence (Q16531 whole entry partner) above
How it was run: as §1

IKZF2 = target: T3, IKZF2 (Homo sapiens, UniProt Q96SW2+Q9UKS7); experiment: Western blot degradation of IKZF2 in hPBMCs (24 h); assay type: cell-based; conditions: compounds at 50 nM and 500 nM
T3 construct: The supernatant was aspirated as the extracted total cell protein; endogenous in cells; host or cells: human peripheral blood mononuclear cells (hPBMCs)
T3 sequence (Q9UKS7 whole entry): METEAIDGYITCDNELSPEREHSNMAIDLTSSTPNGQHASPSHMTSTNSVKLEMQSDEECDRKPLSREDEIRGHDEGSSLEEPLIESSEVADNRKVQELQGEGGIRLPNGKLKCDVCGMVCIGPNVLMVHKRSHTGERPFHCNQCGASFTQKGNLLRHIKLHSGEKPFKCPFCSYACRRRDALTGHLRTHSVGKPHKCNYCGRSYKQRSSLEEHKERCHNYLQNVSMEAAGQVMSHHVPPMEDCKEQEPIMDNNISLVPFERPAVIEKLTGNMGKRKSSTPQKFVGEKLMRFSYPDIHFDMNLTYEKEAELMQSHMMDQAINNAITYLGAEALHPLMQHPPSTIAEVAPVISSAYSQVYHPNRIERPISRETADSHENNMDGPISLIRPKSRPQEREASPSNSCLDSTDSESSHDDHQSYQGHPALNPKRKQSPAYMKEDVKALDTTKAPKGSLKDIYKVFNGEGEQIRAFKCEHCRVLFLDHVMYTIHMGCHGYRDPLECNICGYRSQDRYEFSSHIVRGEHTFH
T3 sequence (Q96SW2 whole entry): as the sequence (Q96SW2 whole entry) above
T3 sequence (Q16531 whole entry partner): as the sequence (Q16531 whole entry partner) above
How it was run: as §1

WEE1 = target: T4, WEE1 (Homo sapiens, UniProt P30291+Q96SW2); experiment: Western blot degradation of WEE1 in hPBMCs (24 h); assay type: cell-based; conditions: compounds at 50 nM and 500 nM
T4 construct: The supernatant was aspirated as the extracted total cell protein; endogenous in cells; host or cells: human peripheral blood mononuclear cells (hPBMCs)
T4 sequence (P30291 whole entry): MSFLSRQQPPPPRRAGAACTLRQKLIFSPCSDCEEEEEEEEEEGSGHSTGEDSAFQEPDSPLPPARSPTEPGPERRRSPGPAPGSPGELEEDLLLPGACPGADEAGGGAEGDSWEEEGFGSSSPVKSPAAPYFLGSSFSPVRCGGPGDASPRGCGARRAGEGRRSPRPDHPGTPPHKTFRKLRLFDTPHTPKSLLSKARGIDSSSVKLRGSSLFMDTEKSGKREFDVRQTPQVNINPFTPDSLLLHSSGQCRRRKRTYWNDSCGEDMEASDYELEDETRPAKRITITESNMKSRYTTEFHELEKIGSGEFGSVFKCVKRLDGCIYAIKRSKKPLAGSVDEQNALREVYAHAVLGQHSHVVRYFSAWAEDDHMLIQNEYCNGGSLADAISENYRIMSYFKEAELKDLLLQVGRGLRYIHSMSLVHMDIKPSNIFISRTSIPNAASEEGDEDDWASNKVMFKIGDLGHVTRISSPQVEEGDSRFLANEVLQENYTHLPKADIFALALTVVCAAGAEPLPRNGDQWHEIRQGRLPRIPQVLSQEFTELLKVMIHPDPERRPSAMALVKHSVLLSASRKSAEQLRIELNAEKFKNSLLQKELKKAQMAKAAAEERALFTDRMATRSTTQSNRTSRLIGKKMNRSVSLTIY
T4 sequence (Q96SW2 whole entry): as the sequence (Q96SW2 whole entry) above
T4 sequence (Q16531 whole entry partner): as the sequence (Q16531 whole entry partner) above
How it was run: as §1

MM.1S cells = experiment: Inhibition of proliferation of multiple myeloma cells MM.1S (cell viability assay, 96 h); assay type: cell-based, human; conditions: read-out: inhibitory activity (IC50) against tumor cells proliferation, MM.1S
CK1α = target: T5, CK1α (Homo sapiens, UniProt P48729+Q96SW2); experiment: Western blot degradation of CK1α in hPBMCs (24 h); assay type: cell-based; conditions: compounds at 50 nM and 500 nM
T5 construct: The supernatant was aspirated as the extracted total cell protein; endogenous in cells; host or cells: human peripheral blood mononuclear cells (hPBMCs)
How it was run: as §1

GSPT1 = target: T6, GSPT1 (Homo sapiens, UniProt P15170+Q96SW2); experiment: Western blot degradation of GSPT1 in hPBMCs (24 h); assay type: cell-based; conditions: compounds at 50 nM and 500 nM
T6 construct: The supernatant was aspirated as the extracted total cell protein; endogenous in cells; host or cells: human peripheral blood mononuclear cells (hPBMCs)
T6 sequence (P15170 whole entry): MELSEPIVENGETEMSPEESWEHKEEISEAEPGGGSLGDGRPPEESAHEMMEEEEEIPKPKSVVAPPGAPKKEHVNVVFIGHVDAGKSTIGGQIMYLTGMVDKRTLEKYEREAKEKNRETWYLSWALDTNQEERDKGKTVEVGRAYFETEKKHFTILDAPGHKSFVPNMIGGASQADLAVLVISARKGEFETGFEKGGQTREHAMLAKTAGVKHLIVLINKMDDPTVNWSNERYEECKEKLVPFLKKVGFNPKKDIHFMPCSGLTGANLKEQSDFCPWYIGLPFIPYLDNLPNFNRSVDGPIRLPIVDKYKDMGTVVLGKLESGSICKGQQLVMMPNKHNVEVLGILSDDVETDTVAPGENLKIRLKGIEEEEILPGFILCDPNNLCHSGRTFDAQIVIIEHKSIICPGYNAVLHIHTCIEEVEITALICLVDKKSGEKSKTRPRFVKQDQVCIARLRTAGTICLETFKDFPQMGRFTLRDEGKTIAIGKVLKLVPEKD
T6 sequence (Q96SW2 whole entry): as the sequence (Q96SW2 whole entry) above
T6 sequence (Q16531 whole entry partner): as the sequence (Q16531 whole entry partner) above
How it was run: as §1

Jurkat cells = experiment: Inhibition of proliferation of T lymphocytic leukemia cells Jurkat (cell viability assay, 96 h); assay type: cell-based, human; conditions: read-out: inhibitory activity (IC50) against tumor cells proliferation, Jurkat
MV-4-11 cells = experiment: Inhibition of proliferation of myeloid monocytic leukemia cells MV-4-11 (cell viability assay, 96 h); assay type: cell-based, human; conditions: read-out: inhibitory activity (IC50) against tumor cells proliferation, MV-4-11
Method: as §2, §3, §4

| SMILES | IKZF3 substrate protein remaining % (IKZF3) | IC50 (MGC803 cells) [nM] | IKZF1 substrate protein remaining % (IKZF1) | IKZF2 substrate protein remaining % (IKZF2) | WEE1 substrate protein remaining % (WEE1) | IC50 (MM.1S cells) [nM] | CK1α substrate protein remaining % (CK1α) | GSPT1 substrate protein remaining % (GSPT1) | IC50 (Jurkat cells) [nM] | IC50 (MV-4-11 cells) [nM] |
| --- | --- | --- | --- | --- | --- | --- | --- | --- | --- | --- |
| O=C1CCN(N2Cc3cc(CN4CCN(c5cccc(Cl)c5Cl)CC4)ccc3C2=O)C(=O)N1 [GT-04853, 1-(5-((4-(2,3-dichlorophenyl)piperazin-1-yl)methyl)-1-oxoisoindolin-2-yl)dihydropyrimidine-2,4(1H,3H)-dione] | B (80%< substrate protein remaining % ≤100%) | 500 to 1000 | A (0% ≤ substrate protein remaining % ≤80%) | A (0% ≤ substrate protein remaining % ≤80%) | A (0% ≤ substrate protein remaining % ≤80%) | 100 to 300 | B (80%< substrate protein remaining % ≤100%) | A (0% ≤ substrate protein remaining % ≤80%) |  |  |
| O=C1CCN(N2Cc3cc(CN4CCN(c5cccc6sccc56)CC4)ccc3C2=O)C(=O)N1 [GT-04866, 1-(5-((4-(benzo[b]thiophen-4-yl)piperazin-1-yl)methyl)-1-oxoisoindolin-2-yl)dihydropyrimidine-2,4(1H,3H)-dione] | B (80%< substrate protein remaining % ≤100%) | 300 to 500 | A (0% ≤ substrate protein remaining % ≤80%) | B (80%< substrate protein remaining % ≤100%) | A (0% ≤ substrate protein remaining % ≤80%) | 100 to 300 | B (80%< substrate protein remaining % ≤100%) | A (0% ≤ substrate protein remaining % ≤80%) | 300 to 500 |  |
| O=C1CCN(N2Cc3cc(CN4CC=C(c5cccs5)CC4)ccc3C2=O)C(=O)N1 [GT-04868, 1-(1-oxo-5-((4-(thiophen-2-yl)-3,6-dihydropyridin-1(2H)-yl)methyl)isoindolin-2-yl)dihydropyrimidine-2,4(1H,3H)-dione] | B (80%< substrate protein remaining % ≤100%) | 300 to 500 | A (0% ≤ substrate protein remaining % ≤80%) | B (80%< substrate protein remaining % ≤100%) | A (0% ≤ substrate protein remaining % ≤80%) | 100 to 300 | A (0% ≤ substrate protein remaining % ≤80%) | A (0% ≤ substrate protein remaining % ≤80%) | 300 to 500 |  |
| Cc1ccc(C2=CCN(Cc3ccc4c(c3)CN(N3CCC(=O)NC3=O)C4=O)CC2)s1 [GT-04869, 1-(5-((4-(5-methylthiophen-2-yl)-3,6-dihydropyridin-1(2H)-yl)methyl)-1-oxoisoindolin-2-yl)dihydropyrimidine-2,4(1H,3H)-dione] | A (0% ≤ substrate protein remaining % ≤80%) | 300 to 500 | A (0% ≤ substrate protein remaining % ≤80%) | A (0% ≤ substrate protein remaining % ≤80%) | A (0% ≤ substrate protein remaining % ≤80%) | 50 to 100 | B (80%< substrate protein remaining % ≤100%) | A (0% ≤ substrate protein remaining % ≤80%) | 300 to 500 |  |
| Cc1ccsc1C1=CCN(Cc2ccc3c(c2)CN(N2CCC(=O)NC2=O)C3=O)CC1 [GT-04870, 1-(5-((4-(3-methylthiophen-2-yl)-3,6-dihydropyridin-1(2H)-yl)methyl)-1-oxoisoindolin-2-yl)dihydropyrimidine-2,4(1H,3H)-dione] | A (0% ≤ substrate protein remaining % ≤80%) | 100 to 300 | A (0% ≤ substrate protein remaining % ≤80%) | A (0% ≤ substrate protein remaining % ≤80%) | A (0% ≤ substrate protein remaining % ≤80%) | 50 to 100 | B (80%< substrate protein remaining % ≤100%) | A (0% ≤ substrate protein remaining % ≤80%) | 100 to 300 |  |
| O=C1CCN(N2Cc3cc(CN4CC=C(c5ccsc5)CC4)ccc3C2=O)C(=O)N1 [GT-04871, 1-(1-oxo-5-((4-(thiophen-3-yl)-3,6-dihydropyridin-1(2H)-yl)methyl)isoindolin-2-yl)dihydropyrimidine-2,4(1H,3H)-dione] | B (80%< substrate protein remaining % ≤100%) | 300 to 500 | A (0% ≤ substrate protein remaining % ≤80%) | B (80%< substrate protein remaining % ≤100%) | A (0% ≤ substrate protein remaining % ≤80%) | 100 to 300 | B (80%< substrate protein remaining % ≤100%) | A (0% ≤ substrate protein remaining % ≤80%) | 300 to 500 |  |
| O=C1CCN(N2Cc3cc(CN4CCN(C(c5ccccc5)c5ccccn5)CC4)ccc3C2=O)C(=O)N1 (centres unmarked) [GT-04890, 1-(1-oxo-5-((4-(phenyl(pyridin-2-yl)methyl)piperazin-1-yl)methyl)isoindolin-2-yl)dihydropyrimidine-2,4(1H,3H)-dione] | B (80%< substrate protein remaining % ≤100%) | 500 to 1000 | A (0% ≤ substrate protein remaining % ≤80%) | A (0% ≤ substrate protein remaining % ≤80%) | B (80%< substrate protein remaining % ≤100%) | 100 to 300 | B (80%< substrate protein remaining % ≤100%) | A (0% ≤ substrate protein remaining % ≤80%) |  |  |
| O=C1CCN(N2Cc3cc(CN4CCC(c5cccc(Cl)c5Cl)CC4)ccc3C2=O)C(=O)N1 [GT-06893, 1-(5-((4-(2,3-dichlorophenyl)piperidin-1-yl)methyl)-1-oxoisoindolin-2-yl)dihydropyrimidine-2,4(1H,3H)-dione] | B (80%< substrate protein remaining % ≤100%) |  | A (0% ≤ substrate protein remaining % ≤80%) | A (0% ≤ substrate protein remaining % ≤80%) | B (80%< substrate protein remaining % ≤100%) |  | B (80%< substrate protein remaining % ≤100%) | A (0% ≤ substrate protein remaining % ≤80%) | 500 to 1000 | 100 to 300 |
| O=C1CCN(N2Cc3cc(CN4CCC(c5cccc(F)c5Cl)CC4)ccc3C2=O)C(=O)N1 [GT-06894, 1-(5-((4-(2-chloro-3-fluorophenyl)piperidin-1-yl)methyl)-1-oxoisoindolin-2-yl)dihydropyrimidine-2,4(1H,3H)-dione] | B (80%< substrate protein remaining % ≤100%) |  | A (0% ≤ substrate protein remaining % ≤80%) | B (80%< substrate protein remaining % ≤100%) | B (80%< substrate protein remaining % ≤100%) |  | B (80%< substrate protein remaining % ≤100%) | A (0% ≤ substrate protein remaining % ≤80%) | 500 to 1000 | 300 to 500 |
